Experimental data published in patent publication US8710021B2, “Inhibition of HRP-3 using modified oligonucleotides” (Bionucleon S.r.l., priority 2008, dated 2014).

Columns and labels:
HRP-3 [1] = molecular target: T1, HRP-3 (Homo sapiens, UniProt Q9Y3E1); assay: 3T3 migration in vitro assay: prevention of HRP-3 function by DNA duplexes; format: cell-based, mouse
T1 construct: The HRP-3 coding region was cloned into the pET30 vector using EcoRI and NdeI as restriction sites; made in house; host or cells: E. coli BL21
T1 sequence (Q9Y3E1 whole entry): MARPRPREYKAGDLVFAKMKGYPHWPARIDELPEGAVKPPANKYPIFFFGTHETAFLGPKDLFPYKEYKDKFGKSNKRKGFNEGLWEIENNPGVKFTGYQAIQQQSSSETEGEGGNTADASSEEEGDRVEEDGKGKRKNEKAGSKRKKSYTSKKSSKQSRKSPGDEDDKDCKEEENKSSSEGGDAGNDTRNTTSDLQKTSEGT
Procedure: All the four DNA duplexes were tested in our 3T3 migration in vitro assay to see if they were able to prevent HRP-3 function by binding its PWWP domain (FIG. 13). […] The third column on the left is the negative control.

HRP-3 [2] = molecular target: T1, HRP-3; assay: HUVEC migration assay with Duplex 1 and HRP-3; format: cell-based; details: 50 nM; data not shown

Duplex 1: short (15 bp) duplex DNA, the duplex of Lukasik et al., designed to target HRP3 (FIG. 12) (chain 1 TACAACACCCACAAA; chain 2 TTTGTGGGTGTTGTA; chain 1: DNA, backbone and methylation of C not given here; chain 2: DNA, backbone not given here) [reference compound]
activity in abolishing the anti-migratory effect of HRP-3 on 3T3 cells (HRP-3 [1]): able to abolish the protein effect of HRP-3
migration of 3T3 cells in presence of HRP-3 and duplex (HRP-3 [1]; 250 nM duplex with HRP-3): comparable with the control with FBS
influence of the duplex alone on 3T3 migration compared to control with FBS (HRP-3 [1]; 1000 nM, without HRP-3): does not have any influence on the migration
reversal of anti-migratory activity of HRP-3 on HUVEC (HRP-3 [2]): restore totally
